The experiment has as its system human β2-adrenergic receptor, β-galactosidase fusion protein expressed from λβ2 (λgt11) in E. coli Y1089. The following applies: 20 pM ICYP; non-radiolabeled agonists at 10^-8, 10^-8 and 10^-4 M; FIG. 3.

Results on 2 compounds are retold here after US5328838A, “Method for identifying and/or isolating genes which code for membrane receptors” (Enichem Partecipazioni S.p.A., priority 1990, dated 1994).

Method: In order to further characterize the specificity of the test by replication on filters, 3 β-adrenergic agonists were tested on [λβ2] cells in bond-competition tests.
The bacterial cells were seeded on slabs of LB-agar of 10 cm of diameter and were grown for 12 hours at 30° C. Circular nitrocellulose filters (of 8.5 cm of diameter), previously drenched in 10 mM IPTG in the case of the expression of [λgt11], [λβ1] and [λβ2] lysogens were then laid above the bacterial colonies; the expression of proteins was induced for 2 hours, at 30° C. for the lysogenic colonies, and at 42° C. for the colonies transformed with pUEX1 and pUEXβ2, before the removal of the filters. The subsequent treatments were carried out at room temperature, with constant rocking. The replications on filter of the bacterial colonies were first incubated for 60 minutes in 10 ml of bond-establishing buffer (90 mM NaCl, 10 mM Tris-HCl pH 7.5) containing 20 mg/ml of bovine serumalbumin, and were then transferred for 90 minutes in 10 ml of bond-establishing buffer containing 20 mg/ml of bovine serumalbumin and 20 pM ICYP (2000 Ci/mmol, Amersham, U.K.). […]

Regarding `CNC[C@H](O)c1ccc(O)c(O)c1` [epinephrine, (-)-epinephrine], the “order of power of competition for the bond of ICYP” value is “isoprotenerol>epinephrine>norepinephrine”.

As to `NC[C@H](O)c1ccc(O)c(O)c1` [norepinephrine, (-)-norepinephrine], the “order of power of competition for the bond of ICYP” value was “isoprotenerol>epinephrine>norepinephrine”.
